Results reported in US20240270737A1, “SMALL MOLECULAR INHIBITORS OF STING SIGNALING COMPOSITIONS AND METHODS OF USE” (STINGINN INC., priority 2021, published 2024).

System: IFNβ expression (type I IFNβ promoter driving luciferase)
Assay: IFNβ promoter luciferase assay in hTERT-pIFNβ-Glu cells transfected with ISD
Format: cell-based, human
Conditions: Homo sapiens
Protocol: Inhibition of IFNβ expression was measured by Luciferase induction at 24 hours after transfection of ISD, DMSO is shown (230), ISD treatment only (220) was used as a control, according to an embodiment of the invention;
Inhibition of IFNβ expression was measured by Luciferase induction at 24 hours after transfection of ISD, Mock is shown (210), ISD treatment only (220) was used as a control, according to an embodiment of the invention;
Identification of small molecule inhibitors of STING. In the presence of cytosolic DNA species, STING becomes activated to drive the transcription of cytokines such as type I IFN. Compounds binding to STING via TSA were subsequently examined for their ability to prevent cytosolic DNA species from activating the type I interferon (IFN) promoter, using a live cell assay. This assay comprised immortalized human fibroblasts (hTERT) that were stably transfected with the type I IFN promoter driving luciferase as well as the CMV promoter driving SEAP (hTERT-pIFNβ-Glu). The live cell assay has previously been disclosed in PCT/US2019/025380 entitled IFN-Beta Reporter System for Immortalized Primary Cells inventor Glen N. Barber, which was filed Apr. 2, 2018 and published as WO2019195285, and which is herein incorporated by reference in its entirety and for all purposes. The ability of the small molecules to prevent activation of the type I IFN promoter and the transcription of luciferase, but not SEAP in response to cytosolic DNA species was assessed. The activation of STING, typically by CDNs, in turn activates the transcription factors NF-κB and IRF3, both of which are required to induce the transcriptional stimulation of the Type I IFN promoter, but not the CMV promoter as IRF3 and NF-kB transcription factor binding sites are not contained in the CMV promoter. The assay identified the small molecule Compound W1 in the first screen (HTS), where the level of luciferase was not able to activate the type I IFN promoter or induce the expression of luciferase (see Table I and Table II).
Inhibition of IFNβ expression was measured by Luciferase induction at 24 hours after transfection of ISD. ISD only treatment was used as control.
Inhibition of IFNβ expression was measured by Luciferase induction at 24 hours after transfection of ISD, Mock is shown (210), ISD treatment only (220) was used as a control.
Luciferase assay: hTERT-BJ1 Telomerase Fibroblasts stably expressing the luciferase gene under the control of the interferon-beta promoter and SEAP gene under control of the CMV promoter) (hTERT-pIFNβ-Glu) were generated by the Barber laboratory. Luciferase assay was performed using Secrete-Pair Dual Luminescence Assay Kit from GeneCopoeia following the manufacturer's protocol.

| Structure (SMILES) | inhibition at 5 µM [%] |
| --- | --- |
| COc1ccc(-c2nc(CN3CCN(c4cc(C)nc(C(C)C)n4)CC3)cs2)cc1OC [Compound W2] | -4 |
| Cc1cc(N2CCN(Cc3csc(-c4ccccc4)n3)CC2)nc(N(C)C)n1 [Compound W6, N,N,4-trimethyl-6-{4-[(2-phenyl-1,3-thiazol-4-yl)methyl]piperazin-1-yl}pyrimidin-2-amine] | -34 |
| COc1ccc(-c2nc(CN3CCN(c4cc(C)nc(N(C)C)n4)CC3)cs2)cc1 [Compound W7, 4-(4-{[2-(4-methoxyphenyl)-1,3-thiazol-4-yl]methyl}piperazin-1-yl)-N,N,6-trimethylpyrimidin-2-amine] | -11 |
| COc1cccc(-c2nc(CN3CCN(c4cc(C)nc(N(C)C)n4)CC3)cs2)c1 [Compound W8, 4-(4-{[2-(3-methoxyphenyl)-1,3-thiazol-4-yl]methyl}piperazin-1-yl)-N,N,6-trimethylpyrimidin-2-amine] | -59 |
| Cc1cc(N2CCN(Cc3csc(-c4ccc5c(c4)OCO5)n3)CC2)nc(N(C)C)n1 [Compound W9, 4-(4-{[2-(2H-1,3-benzodioxol-5-yl)-1,3-thiazol-4-yl]methyl}piperazin-1-yl)-N,N,6-trimethylpyrimidin-2-amine] | -40 |
| Cc1cc(N2CCN(Cc3csc(-c4ccc(C#N)cc4)n3)CC2)nc(N(C)C)n1 [Compound W10, 4-[4-({4-[2-(dimethylamino)-6-methylpyrimidin-4-yl]piperazin-1-yl}methyl)-1,3-thiazol-2-yl]benzonitrile] | -62 |
| Cc1cc(N2CCN(Cc3csc(-c4ccc(S(C)(=O)=O)cc4)n3)CC2)nc(N(C)C)n1 [Compound W12, 4-(4-{[2-(4-methanesulfonylphenyl)-1,3-thiazol-4-yl]methyl}piperazin-1-yl)-N,N,6-trimethylpyrimidin-2-amine] | -40 |
| Cc1cc(N2CCN(Cc3noc(-c4ccccc4)n3)CC2)nc(N(C)C)n1 [Compound W16, N,N,4-trimethyl-6-{4-[(5-phenyl-1,2,4-oxadiazol-3-yl)methyl]piperazin-1-yl}pyrimidin-2-amine] | 26 |
| Cc1cc(N2CCN(Cc3cnc(-c4ccccc4)o3)CC2)nc(N(C)C)n1 [Compound W17, N,N,4-trimethyl-6-{4-[(2-phenyl-1,3-oxazol-5-yl)methyl]piperazin-1-yl}pyrimidin-2-amine] | 2 |
| Cc1cc(N2CCN(Cc3coc(-c4ccccc4)n3)CC2)nc(N(C)C)n1 [Compound W18, N,N,4-trimethyl-6-{4-[(2-phenyl-1,3-oxazol-4-yl)methyl]piperazin-1-yl}pyrimidin-2-amine] | -82 |
| CCN(C)c1nc(C)cc(N2CCN(Cc3csc(-c4ccc(OC)c(OC)c4)n3)CC2)n1 [Compound W21, 4-(4-{[2-(3,4-dimethoxyphenyl)-1,3-thiazol-4-yl]methyl}piperazin-1-yl)-N-ethyl-N,6-dimethylpyrimidin-2-amine] | -84 |
| CCN(CC)c1nc(C)cc(N2CCN(Cc3csc(-c4ccc(OC)c(OC)c4)n3)CC2)n1 [Compound W22, 4-(4-{[2-(3,4-dimethoxyphenyl)-1,3-thiazol-4-yl]methyl}piperazin-1-yl)-N,N-diethyl-6-methylpyrimidin-2-amine] | 28 |
| CNc1nc(C)cc(N2CCN(Cc3csc(-c4ccc(OC)c(OC)c4)n3)CC2)n1 [Compound W23, 4-(4-{[2-(3,4-dimethoxyphenyl)-1,3-thiazol-4-yl]methyl}piperazin-1-yl)-N,6-dimethylpyrimidin-2-amine] | -33 |
| COc1ccc(-c2nc(CN3CCN(c4cc(C)nc(N5CCCC5)n4)CC3)cs2)cc1OC [Compound W24, 4-(4-{[2-(3,4-dimethoxyphenyl)-1,3-thiazol-4-yl]methyl}piperazin-1-yl)-6-methyl-2-(pyrrolidin-1-yl)pyrimidine] | -26 |
| CCc1cc(N2CCN(Cc3csc(-c4ccc(OC)c(OC)c4)n3)CC2)nc(N(C)C)n1 [Compound W25, 4-(4-{[2-(3,4-dimethoxyphenyl)-1,3-thiazol-4-yl]methyl}piperazin-1-yl)-6-ethyl-N,N-dimethylpyrimidin-2-amine] | -126 |
| COc1ccc(-c2nc(CN3CCN(c4cc(C(C)C)nc(N(C)C)n4)CC3)cs2)cc1OC [Compound W26, 4-(4-{[2-(3,4-dimethoxyphenyl)-1,3-thiazol-4-yl]methyl}piperazin-1-yl)-N,N-dimethyl-6-(propan-2-yl)pyrimidin-2-amine] | -120 |
| COc1cc(N2CCN(Cc3csc(-c4ccc(OC)c(OC)c4)n3)CC2)nc(N(C)C)n1 [Compound W27, 4-(4-{[2-(3,4-dimethoxyphenyl)-1,3-thiazol-4-yl]methyl}piperazin-1-yl)-6-methoxy-N,N-dimethylpyrimidin-2-amine] | -64 |
| COc1ccc(-c2nc(CN3CCN(c4cc(C(F)(F)F)nc(N(C)C)n4)CC3)cs2)cc1OC [Compound W28, 4-(4-{[2-(3,4-dimethoxyphenyl)-1,3-thiazol-4-yl]methyl}piperazin-1-yl)-N,N-dimethyl-6-(trifluoromethyl)pyrimidin-2-amine] | -89 |
| Cc1cc(N2CCN(Cc3csc(-c4ccc(C(C)C)cc4)n3)CC2)nc(N(C)C)n1 [Compound W29, N.N.4-trimethyl-6-[4-({2-[4-(propan-2-yl)phenyl]-1.3-thiazol-4-yl}methyl)piperazin-1-yl]pyrimidin-2-amine] | 50 |
| Cc1cc(N2CCN(Cc3csc(-c4ccc(C5CC5)cc4)n3)CC2)nc(N(C)C)n1 [Compound W30, 4-(4-{[2-(4-cyclopropylphenyl)-1.3-thiazol-4-yl]methyl}piperazin-1-yl)-N.N.6-trimethylpyrimidin-2-amine] | 50 |
| COc1cc(C(F)(F)F)ccc1-c1nc(CN2CCN(c3cc(C)nc(N(C)C)n3)CC2)cs1 [Compound W31, 4-[4-({2-[2-methoxy-4-(trifluoromethyl)phenyl]-1.3-thiazol-4-yl}methyl)piperazin-1-yl]-N.N.6-trimethylpyrimidin-2-amine] | 60 |
| Cc1cc(N2CCN(Cc3csc(-c4ccc(C(C)(F)F)cc4)n3)CC2)nc(N(C)C)n1 [Compound W32, 4-[4-({2-[4-(1.1-difluoroethyl)phenyl]-1.3-thiazol-4-yl}methyl)piperazin-1-yl]-N.N.6-trimethylpyrimidin-2-amine] | 70 |
| Cc1cc(N2CCN(Cc3csc(-c4ccc(CC(F)(F)F)cc4)n3)CC2)nc(N(C)C)n1 [Compound W33, N.N.4-trimethyl-6-[4-({2-[4-(2.2.2-trifluoroethyl)phenyl]-1.3-thiazol-4-yl}methyl)piperazin-1-yl]pyrimidin-2-amine] | 65 |
| Cc1cc(N2CCN(Cc3csc(-c4ccc(C(F)(F)Cl)cc4)n3)CC2)nc(N(C)C)n1 [Compound W34, 4-[4-({2-[4-(chlorodifluoromethyl)phenyl]-1.3-thiazol-4-yl}methyl)piperazin-1-yl]-N.N.6-trimethylpyrimidin-2-amine] | 50 |
| Cc1cc(N2CCN(Cc3csc(-c4ccc5c(c4)OCC5)n3)CC2)nc(N(C)C)n1 [Compound W35] | 0 |
